Where a SMILES comes first, the peptide text is derived from it. Bridges are numbered along the chain shown (N, C = ends).
test system: pulmonary oedema in Wistar rats; test: Experimental animal study pulmonary oedema: oxygen content of arterial blood after acid lung rinsing; type: in vivo, rat; conditions: 125 μg protein intratracheal, 180 minutes after lung rinsing, before rinsing = 100%, without protein 20%
Excerpt: For the simulation of an acute lung injury and for the formation of a pulmonary oedema, the lungs of laboratory animals, e.g., mice or rats, can be rinsed several times with an acidified saline solution in a manner common in laboratories (for example, according to Isik F. et al., Eur J Cardiothorac Surg (2005); 28: 301-305). The result is a decrease in lung function. If a protein according to the present invention, e.g., a protein of amino acid sequence SEQ ID NO:1, SEQ ID NO:2 or SEQ ID NO:3, is injected as a fog or in an aqueous solution into the lungs of the laboratory animals, a distinct improvement in the lung function will occur within 3 to 5 hours, as indicated by the increased oxygen content in the arterial blood. Thus, a protein according to the present invention can be used for the treatment of oedemas such as pulmonary oedemas.
Male Wistar rats (weighing from 250 g to 350 g) are anesthetized with Rompun® (0.02 ml/100 g) and Ketavet® (0.1 ml/100 g). The respiration is done with a cycle of […], with an inhalation time of 0.2 seconds and an exhalation time of 0.5 seconds. The body temperature ranges, on average, from 37° C. to 39° C. […]
At intervals of 60 minutes each, arterial blood (0.1 ml) is withdrawn from the animals, and the oxygen content is determined in % relative to the normal value.
The verification of the stimulating effect of a protein according to the present invention, e.g., of a protein comprising amino acid sequence SEQ ID NO:1, SEQ ID NO:2 or SEQ ID NO:3, on the lung function is made via experimental animal studies in which a pulmonary oedema is induced. […] In each case, 5 animals are used for objectifying the measured values.
For the intratracheal inhalation, 125 μg protein are, in each case, dissolved in 150 mM saline solution pH 7.3. The oxygen content of the arterial blood is measured immediately before rinsing the lungs, 60 minutes after rinsing the lungs and 180 minutes after rinsing the lungs.
The oxygen content immediately before rinsing the lungs is determined to be 100%. […]

| Structure (SMILES) | oxygen content in the arterial blood [%] |
| --- | --- |
| CC[C@H](C)[C@H](NC(=O)[C@H](C)N)C(=O)N[C@@H](CCCCN)C(=O)N[C@@H](CO)C(=O)N1CCC[C@H]1C(=O)N[C@H]1CSSC[C@@H](C(=O)N2CCC[C@H]2C(=O)N[C@@H](CO)C(=O)N[C@H](C(=O)N[C@@H](Cc2c[nH]cn2)C(=O)N[C@H](C(=O)O)C(C)C)[C@@H](C)O)NC(=O)CNC(=O)CNC(=O)[C@H](CCCCN)NC(=O)[C@H](C)NC(=O)[C@H](CCC(=O)O)NC(=O)[C@H](C)NC(=O)CNC(=O)[C@H](CCC(=O)O)NC(=O)[C@@H]2CCCN2C(=O)[C@H]([C@@H](C)O)NC(=O)[C@H](CCC(=O)O)NC(=O)[C@H](CCCNC(=N)N)NC(=O)[C@H](CCC(N)=O)NC1=O [SEQ ID NO:1] (H-AIKSPCQRETPEGAEAKGGCPSTHV-OH; disulfide 6-20) | 60 |
| C[C@@H]1NC(=O)CNC(=O)[C@H](CCC(=O)O)NC(=O)[C@@H]2CCCN2C(=O)[C@H]([C@@H](C)O)NC(=O)[C@H](CCC(=O)O)NC(=O)[C@H](CCCNC(=N)N)NC(=O)[C@H](CCC(N)=O)NC(=O)[C@@H](NC(=O)[C@@H]2CCCN2C(=O)[C@H](CO)NC(=O)[C@@H](N)CCCCN)CSSC[C@@H](C(=O)N2CCC[C@H]2C(=O)N[C@@H](CO)C(=O)O)NC(=O)CNC(=O)CNC(=O)[C@H](CCCCN)NC(=O)[C@H](C)NC(=O)[C@H](CCC(=O)O)NC1=O [SEQ ID NO:2] (H-KSPCQRETPEGAEAKGGCPS-OH; disulfide 4-18) | 63 |
| C[C@@H]1NC(=O)CNC(=O)[C@H](CCC(=O)O)NC(=O)[C@@H]2CCCN2C(=O)[C@H]([C@@H](C)O)NC(=O)[C@H](CCC(=O)O)NC(=O)[C@H](CCCNC(=N)N)NC(=O)[C@H](CCC(N)=O)NC(=O)[C@@H](N)CSSC[C@@H](C(=O)O)NC(=O)CNC(=O)CNC(=O)[C@H](CCCCN)NC(=O)[C@H](C)NC(=O)[C@H](CCC(=O)O)NC1=O [SEQ ID NO:3, (NH2)Cys-Gln-Arg-Glu-Thr-Pro-Glu-Gly-Ala-Glu-Ala-Lys-Gly-Gly-Cys(COOH)] (H-CQRETPEGAEAKGGC-OH; disulfide 1-15) | 70 |
